Measured values from patent US8785430B2, “Compound that can inhibit UBC13-UEV interactions, pharmaceutical compositions and therapeutic uses” (Consejo Superior de Investigaciones Cientificas, priority 2006, dated 2014).
Where two headings read alike, the source gives them in different places.

Legend:
PC-3.Sluc cells tumors = assay: PC-3.Sluc tumor xenografts in Balb/c nu/nu mice, light emission (RLUs); type: in vivo; conditions: doxorubicin alone i.v., 5 mg/Kg, once a week; 56 days
Experimental: For the purpose of determining if Varubin has an in vivo antitumor activity, its effects in mice having tumors formed from PC-3 cells were analyzed. The experimental tumors were formed by means of the intramuscular inoculation of PC-3.Sluc cells. The latter are PC-3 prostate cells in which they have been integrated by means of transfecting plasmid pRC/CMV-luc, which expresses the firefly (Photinus pyralis) luciferase gene in mammalian cells q. The incubation of the PC-3.luc cells with D-luciferin, a luciferase substrate, produces light, which can be quantified in an absolute manner (number of photons) either by means of a luminometer or by means of detection with a CCD (charge-coupled device) camera. The latter process further allows representing in real time images of the location of the tumor cells in the inoculated animals, as well as the tumor size, since the intensity of the light (number of photons) emitted in the presence of luciferin is directly proportional to the number of PC-3.luc cells.
For these studies, 24 male Balb/c nu/nu mice (Charles River Laboratories) of an age of 6 weeks were used. These animals were kept in a pathogen-free environment at all times, having been kept in the animal housing facility for 1 week after they were received, before the experimental handling. After being anesthetized by means of an intraperitoneal (i.p.) injection of a mixture at equal parts of 6 mg/Kg of droperidol (Roche, Basel, Switzerland) and 12 mg/Kg of midazolam (Rovi S.A, Madrid, Spain), intramuscular (i.m.) injections were performed both in the right leg and in the left leg of each animal of 1×10^6 PC-3.Sluc cells, suspended in 100 μL of fetal bovine serum-free culture medium. The development of tumors in the inoculation sites was allowed for 2 weeks, after which a first measurement of photons emitted was made and a first capture of images with an ORCA-2BT Imaging System instrument (Hammamatsu Photonics) provided with a C4742-98-LWG-MOD model CCD camera (cooled at −80° C.) was done at a resolution of 512×512 pixels. […] Four minutes later, photons were detected and quantified for 5 minutes in the instrument described above. […] The quantification and the analysis of photons were performed with the aid of the image analysis program WASABI (Hamamatsu Photonics). […] For the graphic representations, the quantitative data (RLUs) were standardized, for each tumor, in relation to the RLUs of day 0 of treatment.
The 24 mice, having luminescent tumors in both legs, were included in 4 experimental groups: (1) Control group, in which an intravenous (i.v.) injection of 100 μL of phosphate buffered saline pH 7.4 (PBS) and 50 μL of intratumoral (i.t.) PBS was performed. […] The light emission of the tumors was analyzed throughout 56 days from the start of the treatment.

PC-3 cells = assay: CyQuant cell count, sensitization to doxorubicin; type: cell-based, human; conditions: Homo sapiens
Experimental: The addition of 100 μM of Ia reduced the IC50 of doxorubicin to 0.1 μM for PC-3 cells and the IC50 of etoposide to 0.04 μM for HeLa cells. Therefore, the treatment with 100 μM of compound Ia causes a sensitization to the cytotoxic effects of doxorubicin of 5 times (PC-3 cells) and a sensitization to the cytotoxic effects of etoposide of 30 times (HeLa cells).

HeLa cells = assay: CyQuant cell count, sensitization to etoposide; conditions: Homo sapiens, HeLa, 24 h, read-out: IC50 for etoposide

| SMILES | tumor growth (RLUs) (PC-3.Sluc cells tumors) | IC50 (PC-3 cells; 72 hours of treatment, doxorubicin alone, read-out: IC50 for doxorubicin) | IC50 (PC-3 cells; plus 100 μM of Ia, read-out: IC50 of doxorubicin with addition of Ia) | IC50 (HeLa cells) |
| --- | --- | --- | --- | --- |
| COc1cccc2c1C(=O)c1c(O)c3c(c(O)c1C2=O)C[C@@](O)(C(=O)CO)C[C@@H]3O[C@H]1C[C@H](N)[C@H](O)[C@H](C)O1 [doxorubicin] | hardly experienced growth | ~500 nM | 100 nM | – |
| COc1cc([C@@H]2c3cc4c(cc3[C@@H](O[C@@H]3O[C@@H]5CO[C@@H](C)O[C@H]5[C@H](O)[C@H]3O)[C@H]3COC(=O)[C@H]23)OCO4)cc(OC)c1O [etoposide, reference compound] | – | – | – | ~1250 nM |
